Data taken from the NIST ThermoML archive (doi:10.1021/je301283e).
Numbers after ± are expanded uncertainties.

Settings: Liquid, Vibrating tube method

CCCCCCCCCCCCCCCC [hexadecane]
mass density [kg/m3]
Settings	313.15 K	333.15 K	353.15 K	373.15 K	393.15 K
340 kPa	759.52 ± 1.4	746.8 ± 1.4	736.2 ± 1.4	723.1 ± 1.4	710 ± 1.4
690 kPa	759.83 ± 1.4	747.1 ± 1.4	736.4 ± 1.4	723.3 ± 1.4	710.3 ± 1.4
1030 kPa	760.08 ± 1.4	747.4 ± 1.4	736.6 ± 1.4	723.6 ± 1.4	710.6 ± 1.4
1380 kPa	760.33 ± 1.4	747.7 ± 1.4	736.9 ± 1.4	723.8 ± 1.4	710.9 ± 1.4
1720 kPa	760.65 ± 1.4	748 ± 1.4	737.1 ± 1.4	724 ± 1.4	711.1 ± 1.4
2070 kPa	760.88 ± 1.4	748.2 ± 1.4	737.4 ± 1.4	724.3 ± 1.4	711.4 ± 1.4
2410 kPa	761.08 ± 1.4	748.5 ± 1.4	737.7 ± 1.4	724.6 ± 1.4	711.7 ± 1.4
2760 kPa	761.33 ± 1.4	748.7 ± 1.4	738 ± 1.4	724.9 ± 1.4	712 ± 1.4
3100 kPa	761.65 ± 1.4	749 ± 1.4	738.3 ± 1.4	725.1 ± 1.4	712.2 ± 1.4
3450 kPa	761.83 ± 1.4	749.2 ± 1.4	738.7 ± 1.4	725.4 ± 1.4	712.3 ± 1.4
3800 kPa	762.08 ± 1.4	749.5 ± 1.4	739.1 ± 1.4	725.6 ± 1.4	712.5 ± 1.4
4140 kPa	762.33 ± 1.4	749.8 ± 1.4	739.3 ± 1.4	725.9 ± 1.4	712.8 ± 1.4
4480 kPa	762.49 ± 1.4	750 ± 1.4	739.5 ± 1.4	726.1 ± 1.4	713 ± 1.4
4830 kPa	762.83 ± 1.4	750.2 ± 1.4	739.8 ± 1.4	726.4 ± 1.4	713.3 ± 1.4
5170 kPa	763.08 ± 1.4	750.5 ± 1.4	740 ± 1.4	726.7 ± 1.4	713.5 ± 1.4
5510 kPa	763.33 ± 1.4	750.7 ± 1.4	740.2 ± 1.4	726.9 ± 1.4	713.8 ± 1.4
5860 kPa	763.58 ± 1.4	751 ± 1.4	740.4 ± 1.4	727.2 ± 1.4	714 ± 1.4
6200 kPa	763.83 ± 1.4	751.2 ± 1.4	740.5 ± 1.4	727.5 ± 1.4	714.3 ± 1.4
6550 kPa	764.08 ± 1.4	751.4 ± 1.4	740.7 ± 1.4	727.8 ± 1.4	714.6 ± 1.4
6890 kPa	764.33 ± 1.4	751.6 ± 1.4	741 ± 1.4	728.1 ± 1.4	714.9 ± 1.4
7240 kPa	764.65 ± 1.4	752 ± 1.4	741.2 ± 1.4	728.4 ± 1.4	715.1 ± 1.4
7580 kPa	764.83 ± 1.4	752.4 ± 1.4	741.5 ± 1.4	728.5 ± 1.4	715.3 ± 1.4
7930 kPa	765.08 ± 1.4	752.6 ± 1.4	741.7 ± 1.4	728.9 ± 1.4	715.5 ± 1.4
8270 kPa	765.33 ± 1.4	752.8 ± 1.4	742 ± 1.4	729.4 ± 1.4	715.8 ± 1.4
8620 kPa	765.58 ± 1.4	753 ± 1.4	742.2 ± 1.4	729.9 ± 1.4	716 ± 1.4
8960 kPa	765.74 ± 1.4	753.2 ± 1.4	742.5 ± 1.4	730.2 ± 1.4	716.3 ± 1.4
9310 kPa	765.99 ± 1.4	753.5 ± 1.4	742.7 ± 1.4	730.6 ± 1.4	716.6 ± 1.4
9650 kPa	766.24 ± 1.4	753.8 ± 1.4	742.9 ± 1.4	730.8 ± 1.4	716.8 ± 1.4
10000 kPa	766.49 ± 1.4	754 ± 1.4	743.1 ± 1.4	731 ± 1.4	717.1 ± 1.4
10340 kPa	766.74 ± 1.4	754.3 ± 1.4	743.5 ± 1.4	731.4 ± 1.4	717.4 ± 1.4
10690 kPa	766.98 ± 1.4	754.5 ± 1.4	743.9 ± 1.4	731.6 ± 1.4	717.6 ± 1.4
11030 kPa	767.22 ± 1.4	754.8 ± 1.4	744.1 ± 1.4	731.9 ± 1.4	717.9 ± 1.4
11380 kPa	767.48 ± 1.4	755 ± 1.4	744.3 ± 1.4	732.1 ± 1.4	718.1 ± 1.4

CCCCCCC [heptane]
mass density [kg/m3]
Settings	313.15 K	333.15 K	353.15 K	373.15 K	393.15 K
340 kPa	667.1 ± 1.4	649.7 ± 1.4	631.8 ± 1.4	613.1 ± 1.4	593.4 ± 1.4
690 kPa	667.5 ± 1.4	650.2 ± 1.4	632.3 ± 1.4	613.7 ± 1.4	594.1 ± 1.4
1030 kPa	667.8 ± 1.4	650.6 ± 1.4	632.8 ± 1.4	614.3 ± 1.4	594.9 ± 1.4
1380 kPa	668.2 ± 1.4	651 ± 1.4	633.3 ± 1.4	614.9 ± 1.4	595.6 ± 1.4
1720 kPa	668.64 ± 1.4	651.4 ± 1.4	633.9 ± 1.4	615.5 ± 1.4	596.3 ± 1.4
2070 kPa	669 ± 1.4	651.9 ± 1.4	634.4 ± 1.4	616.1 ± 1.4	597 ± 1.4
2410 kPa	669.3 ± 1.4	652.3 ± 1.4	634.9 ± 1.4	616.7 ± 1.4	597.8 ± 1.4
2760 kPa	669.8 ± 1.4	652.7 ± 1.4	635.3 ± 1.4	617.3 ± 1.4	598.5 ± 1.4
3100 kPa	670.1 ± 1.4	653.2 ± 1.4	635.8 ± 1.4	618.2 ± 1.4	599.2 ± 1.4
3450 kPa	670.4 ± 1.4	653.6 ± 1.4	636.3 ± 1.4	618.5 ± 1.4	599.9 ± 1.4
3800 kPa	670.8 ± 1.4	654 ± 1.4	636.8 ± 1.4	619 ± 1.4	600.5 ± 1.4
4140 kPa	671.2 ± 1.4	654.4 ± 1.4	637.3 ± 1.4	619.6 ± 1.4	601.2 ± 1.4
4480 kPa	671.6 ± 1.4	654.8 ± 1.4	637.7 ± 1.4	620.2 ± 1.4	601.9 ± 1.4
4830 kPa	671.9 ± 1.4	655.2 ± 1.4	638.2 ± 1.4	620.7 ± 1.4	602.5 ± 1.4
5170 kPa	672.2 ± 1.4	655.6 ± 1.4	638.7 ± 1.4	621.2 ± 1.4	603.2 ± 1.4
5510 kPa	672.6 ± 1.4	656 ± 1.4	639.2 ± 1.4	621.8 ± 1.4	603.8 ± 1.4
5860 kPa	672.9 ± 1.4	656.4 ± 1.4	639.6 ± 1.4	622.3 ± 1.4	604.4 ± 1.4
6200 kPa	673.3 ± 1.4	656.8 ± 1.4	640.1 ± 1.4	622.9 ± 1.4	605.1 ± 1.4
6550 kPa	673.6 ± 1.4	657.2 ± 1.4	640.6 ± 1.4	623.4 ± 1.4	605.7 ± 1.4
6890 kPa	674 ± 2	657.6 ± 1.4	641 ± 1.4	623.9 ± 1.4	606.3 ± 1.5
7240 kPa	674.3 ± 1.4	658 ± 1.4	641.5 ± 1.4	624.4 ± 1.4	606.9 ± 1.5
7580 kPa	–	658.4 ± 1.4	641.9 ± 1.4	625 ± 1.5	607.5 ± 1.5
7930 kPa	–	658.8 ± 1.4	642.3 ± 1.4	625.5 ± 1.5	608.1 ± 1.5
8270 kPa	–	659.2 ± 1.4	642.8 ± 1.4	626 ± 1.5	608.7 ± 1.5
8620 kPa	–	–	643.2 ± 1.5	626.5 ± 1.5	609.3 ± 1.5
8960 kPa	–	–	643.9 ± 1.5	627 ± 1.5	609.9 ± 1.5
9310 kPa	–	–	644.1 ± 1.5	627.5 ± 1.5	610.8 ± 1.5
9650 kPa	–	–	644.5 ± 1.5	628 ± 1.5	611.1 ± 1.5
